# From patent US20100261694A1 (priority 2009, published 2010)
# Like-named read-outs stand apart in the source and are kept apart here.
# How the values were obtained:
# Fusarium graminearum = format: in vivo; conditions: 100 μM chaperone; 10 days postinoculation
# [1] = test system: Triticum aestivum leaf segments; format: cell-based; conditions: for Tunicamycin induced cell death: wheat, co-treatment 100 μM chaperone with 10 μg/ml tunicamycin, 72h
# [2] = test system: Physcomitrella patens gametophore cells; format: cell-based; conditions: for Tunicamycin induced cell death: moss, co-treatment 100 μM chaperone with 10 μg/ml tunicamycin, 72h
# F. graminearum [3] = format: in vivo, Fusarium graminearum; conditions: 100 μM chaperone; for Proliferation of F. graminearum on host tissue (GFP-tagged fungal cells, PCR): moss tissues; for Cell death markers (chlorosis, TUNEL-positive nuclei, Evans Blue staining, ROS induction) by the fungal pathogen: moss
# F. graminearum [4] = format: in vivo, Fusarium graminearum; conditions: 100 μM chaperone; for Proliferation of F. graminearum on host tissue (GFP-tagged fungal cells, PCR): wheat tissues; for Cell death markers (chlorosis, TUNEL-positive nuclei, Evans Blue staining, ROS induction) by the fungal pathogen: wheat
# F. graminearum [5] = format: cell-based, Fusarium graminearum; conditions: 100 μM; rich solid medium, no host
Compound,Fungal growth on inoculated wheat seeds (Fusarium graminearum),Tunicamycin induced cell death [1],Tunicamycin induced cell death [2],"Proliferation of F. graminearum on host tissue (GFP-tagged fungal cells, PCR) (F. graminearum [3])","Cell death markers (chlorosis, TUNEL-positive nuclei, Evans Blue staining, ROS induction) by the fungal pathogen (F. graminearum [3])","Proliferation of F. graminearum on host tissue (GFP-tagged fungal cells, PCR) (F. graminearum [4])","Cell death markers (chlorosis, TUNEL-positive nuclei, Evans Blue staining, ROS induction) by the fungal pathogen (F. graminearum [4])",Fungal growth and reproduction on solid growth medium (F. graminearum [5]),Cell death (Evans Blue staining) compared to untreated control [1],Cell death (Evans Blue staining) compared to untreated control [2]
"O=C(O)CCCc1ccccc1 [PBA, 4-phenylbutyric acid]",suppression of fungal growth,attenuated,attenuated,significantly suppress,attenuated,significantly suppress,attenuated,did not affect fungal growth and reproduction,–,–
"C[C@H](CCC(=O)NCCS(=O)(=O)O)[C@H]1CC[C@H]2[C@@H]3[C@@H](O)C[C@@H]4C[C@H](O)CC[C@]4(C)[C@H]3CC[C@]12C [TUDCA, tauroursodeoxycholic acid]",suppression of fungal growth,attenuated,attenuated,significantly suppress,attenuated,significantly suppress,attenuated,did not affect fungal growth and reproduction,–,–
Tunicamycin,–,–,–,–,–,–,–,–,more cell death,more cell death
